According to ChEMBL document CHEMBL1127007, “Quinazolinones 2: QSAR and in vivo characterization of AT1 selective AII antagonists” (Bioorg Med Chem Lett, 1993):
pIC50: −log10 of the molar value.

Columns and labels:
[1] = biological target: T1, Type-2 angiotensin II receptor (Homo sapiens) (UniProt P50052); assay: In vitro antagonist activity against the Angiotensin II (type 2) receptor.; assay type: functional
T1 sequence (whole entry): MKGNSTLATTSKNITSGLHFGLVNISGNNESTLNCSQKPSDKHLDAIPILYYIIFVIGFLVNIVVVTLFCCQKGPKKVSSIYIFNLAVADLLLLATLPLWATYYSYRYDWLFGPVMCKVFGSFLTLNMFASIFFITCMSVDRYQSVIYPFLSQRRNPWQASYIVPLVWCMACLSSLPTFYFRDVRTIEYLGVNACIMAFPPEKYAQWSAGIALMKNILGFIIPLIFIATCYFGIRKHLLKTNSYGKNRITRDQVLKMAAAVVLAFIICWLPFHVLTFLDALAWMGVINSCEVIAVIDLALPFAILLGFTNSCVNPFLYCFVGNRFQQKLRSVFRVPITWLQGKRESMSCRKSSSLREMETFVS

[2] = biological target: T2, Type-1 angiotensin II receptor (Oryctolagus cuniculus, UniProt P34976); assay: Displacement of [125I]Sar1-Ile8-AII (without BSA) from type 1 Angiotensin II receptor of rabbit aorta; assay type: tissue-based
T2 sequence (P34976 whole entry): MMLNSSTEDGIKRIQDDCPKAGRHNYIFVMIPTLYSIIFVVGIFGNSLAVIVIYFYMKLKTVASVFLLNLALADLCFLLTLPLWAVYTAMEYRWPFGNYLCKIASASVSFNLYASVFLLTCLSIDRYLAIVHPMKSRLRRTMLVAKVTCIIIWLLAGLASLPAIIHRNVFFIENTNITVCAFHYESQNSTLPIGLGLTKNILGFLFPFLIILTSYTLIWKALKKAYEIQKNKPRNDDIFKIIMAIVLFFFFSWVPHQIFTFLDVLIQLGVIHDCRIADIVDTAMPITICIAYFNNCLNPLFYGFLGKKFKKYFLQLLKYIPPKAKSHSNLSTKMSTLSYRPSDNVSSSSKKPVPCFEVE

[3] = biological target: T2, Type-1 angiotensin II receptor; assay: Ability to displace [125I]Sar1-Ile8-AII from angiotensin II receptor, type 1 in rabbit aorta in presence of 0.2% bovine serum albumin (BSA) was determined in vitro; assay type: tissue-based
[4] = biological target: Angiotensin II receptor (Rattus norvegicus) (UniProt P29089+P25095+P35351); assay: Duration of action as time for pressor response to fall below 30% for a single bolus by intravenous dose; assay type: functional, organism-based
Rattus norvegicus [5] = assay: The duration of action is expressed as the time for the % inhibition of pressor response to fall below 30% for a single bolus of the drug administered perorally.; assay type: functional
Rattus norvegicus [6] = assay: Compound was evaluated in vivo for inhibition of the AII pressor response in normotensive rat at dose 0.3 mg/kg, iv after 3.5 hr; assay type: functional
Rattus norvegicus [7] = assay: Compound was evaluated in vivo for inhibition of the AII pressor response in normotensive rat at dose 0.3 mg/kg, iv after 6 hours; assay type: functional
Rattus norvegicus [8] = assay: Compound was evaluated in vivo for inhibition of the AII pressor response in normotensive rat at dose 0.3 mg/kg, po; assay type: functional
Rattus norvegicus [9] = assay: Compound was evaluated in vivo for inhibition of the AII pressor response in normotensive rat at dose 1 mg/kg, iv after 0.9 hour; assay type: functional
Rattus norvegicus [10] = assay: The duration of action is expressed as the time for the % inhibition of pressor response to fall below 30% for a single bolus of the drug administered intravenously.; assay type: functional
Rattus norvegicus [11] = assay: Compound was evaluated in vivo for inhibition of the AII pressor response in normotensive rat at dose 1 mg/kg, iv after 0.2 hour; assay type: functional
Rattus norvegicus [12] = assay: In vivo for inhibition of the AII pressor response in normotensive rat at dose 0.3 mg/kg(iv) after 0.8 hour; assay type: functional

| Activity [1] [nM] | pIC50 [2] | pIC50 [3] | Duration [4] [h] | Compound | Duration (Rattus norvegicus [5]) [h] | inhibition in vivo at 0.3 mg/kg (Rattus norvegicus [6]) [%] | inhibition in vivo at 0.3 mg/kg (Rattus norvegicus [7]) [%] | inhibition in vivo at 0.3 mg/kg (Rattus norvegicus [8]) [%] | inhibition in vivo at 1 mg/kg (Rattus norvegicus [9]) [%] | Duration (Rattus norvegicus [10]) [h] | inhibition in vivo at 1 mg/kg (Rattus norvegicus [11]) [%] | inhibition in vivo at 0.3 mg/kg (Rattus norvegicus [12]) [%] |
| --- | --- | --- | --- | --- | --- | --- | --- | --- | --- | --- | --- | --- |
| > 1000 | 9.30 | 9.12 | > 6 | CCCCc1nc2ccc(NC(=O)NC(C)C)cc2c(=O)n1Cc1ccc(-c2ccccc2-c2nn[nH]n2)cc1 | 0 | 86 | 86 | 0 | – | – | – | – |
| > 1000 | – | – | 0.9 | CCCCc1nc2ccc(NC(C)=O)cc2c(=O)n1Cc1ccc(-c2ccccc2-c2nn[nH]n2)cc1 | – | – | – | – | 97 | – | – | – |
| > 1000 | – | – | – | CCCCc1nc2ccc(OC)cc2c(=O)n1Cc1ccc(-c2ccccc2-c2nn[nH]n2)cc1 | – | – | – | – | – | 0.2 | 49 | – |
| > 1000 | – | – | 0.8 | CCCCc1nc2ccc(N(C)C(=O)N(C)C(C)C)cc2c(=O)n1Cc1ccc(-c2ccccc2-c2nn[nH]n2)cc1 | – | – | – | – | – | – | – | 70 |
